Experiments:
Assay type in all cases: cell-based
[1] = system: Lateral Amygdala glutamatergic neuron (in a mouse brain slice); test: whole cell, current clamp recordings, 2.5 s square pulse at high depolarization (approximately −30 mV); conditions: for inactivation of the sodium fast channels / neuronal firing: square pulse of 2.5 s at high depolarization of membrane potential (approximately −30 mV), relative to control, FIG. 2
Source text: A mouse brain slice was used to study the effects of Menthol, Linalool (another transient receptor potential M8 (TRPM8) channel agonist) and Icilin. The amygdaloid complex is located within the medial temporal lobe in neocortex and amygdala. The lateral and basolateral nuclei of the amygdaloid complex receive sensory information from cortical and thalamic structures, process the information, and then transmit the information, either directly or through the basal nucleus, to the central nucleus. For experimental analysis of neuronal activity, synaptic responses from the basolateral complex can be evoked electrically using electrodes, and the action potentials can be measured. […] A square pulse of 2.5 s was applied at high depolarization of membrane potential (approximately −30 mV).

neocortex = test: action potential threshold in mouse brain slice recordings
Source text: (§1) A mouse brain slice was used to study the effects of Menthol, Linalool (another transient receptor potential M8 (TRPM8) channel agonist) and Icilin. The amygdaloid complex is located within the medial temporal lobe in neocortex and amygdala. The lateral and basolateral nuclei of the amygdaloid complex receive sensory information from cortical and thalamic structures, process the information, and then transmit the information, either directly or through the basal nucleus, to the central nucleus. For experimental analysis of neuronal activity, synaptic responses from the basolateral complex can be evoked electrically using electrodes, and the action potentials can be measured.

[2] = system: Lateral Amygdala glutamatergic neuron (in a mouse brain slice); test: whole cell, current clamp recordings with increasing concentration of gabazine (spontaneous action potential bursts); conditions: Menthol 250 μM applied extracellularly 10 minutes previous to and during increasing concentrations of gabazine; FIG. 5 compared to FIG. 3
Source text: as §1, with “measured. […] As shown, neurons spontaneously present action potential bursts due to massive presynaptic discharges.” for “measured.”

Row | Structure (SMILES) | action potentials at higher stimulation levels [1] | inactivation of the sodium fast channels / neuronal firing [1] | amount of current required to trigger an action potential (neocortex) | threshold to trigger an action potential (neocortex) | spontaneous action potential bursts [2]
1 | O=C1NC(c2cccc([N+](=O)[O-])c2)=CCN1c1ccccc1O [Icilin] | abort action potentials at higher stimulation levels | inactivation of the sodium fast channels happens sooner relative to control | increase the amount of current required to trigger an action potential | increase the threshold to trigger an action potential | 
2 | C=CC(C)(O)CCC=C(C)C (stereo not shown) [Linalool] |  | inactivation of the sodium fast channels happens sooner relative to control |  |  | 
3 | CC1CCC(C(C)C)C(O)C1 (stereo not shown) [Menthol] | abort action potentials at higher stimulation levels | inactivation of the sodium fast channels happens sooner relative to control | increase the amount of current required to trigger an action potential | increase the threshold to trigger an action potential | complete absence or a strongly decreased presence of spontaneous bursts

Source: patent US20160108005A1, “TREATMENT OR PREVENTION OF DEPRESSION USING MENTHOL AND/OR ICILIN” (NESTEC S.A., priority 2013, published 2016)
